The text below walks through data of US10670605B2, “Cysteine reactive probes and uses thereof” (The Scripps Research Institute, priority 2015, dated 2020).

Each structure is given as a SMILES string.

What all share (assay): Competitive isoTOP-ABPP, cell lysates
Assay type in all cases: binding

One experiment addresses CASP8 C360 (Q14790) (Homo sapiens, UniProt Q14790).
For another experiment, the target named is T1, IRF4 C194 (Q15306) (Homo sapiens, UniProt Q15306).
T1 sequence (Q15306 1-451): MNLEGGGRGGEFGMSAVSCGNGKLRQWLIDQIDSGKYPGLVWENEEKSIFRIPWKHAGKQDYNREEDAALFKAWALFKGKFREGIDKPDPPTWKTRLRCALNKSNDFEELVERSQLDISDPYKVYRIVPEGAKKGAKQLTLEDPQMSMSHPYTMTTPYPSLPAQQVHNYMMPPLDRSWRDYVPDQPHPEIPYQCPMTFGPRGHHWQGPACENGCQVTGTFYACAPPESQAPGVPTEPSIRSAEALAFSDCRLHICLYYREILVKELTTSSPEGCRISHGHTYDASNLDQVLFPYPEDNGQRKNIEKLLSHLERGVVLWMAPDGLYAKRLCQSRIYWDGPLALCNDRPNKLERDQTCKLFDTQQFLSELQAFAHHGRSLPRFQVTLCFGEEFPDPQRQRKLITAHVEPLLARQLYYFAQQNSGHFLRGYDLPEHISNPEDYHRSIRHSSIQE

Another experiment concerns the target SMARCC2 C145 (Q8TAQ2) (Homo sapiens, UniProt Q8TAQ2).
The target of another experiment is T2, USP22 C171 (Q9UPT9) (Homo sapiens, UniProt Q9UPT9).
T2 sequence (Q9UPT9 1-525): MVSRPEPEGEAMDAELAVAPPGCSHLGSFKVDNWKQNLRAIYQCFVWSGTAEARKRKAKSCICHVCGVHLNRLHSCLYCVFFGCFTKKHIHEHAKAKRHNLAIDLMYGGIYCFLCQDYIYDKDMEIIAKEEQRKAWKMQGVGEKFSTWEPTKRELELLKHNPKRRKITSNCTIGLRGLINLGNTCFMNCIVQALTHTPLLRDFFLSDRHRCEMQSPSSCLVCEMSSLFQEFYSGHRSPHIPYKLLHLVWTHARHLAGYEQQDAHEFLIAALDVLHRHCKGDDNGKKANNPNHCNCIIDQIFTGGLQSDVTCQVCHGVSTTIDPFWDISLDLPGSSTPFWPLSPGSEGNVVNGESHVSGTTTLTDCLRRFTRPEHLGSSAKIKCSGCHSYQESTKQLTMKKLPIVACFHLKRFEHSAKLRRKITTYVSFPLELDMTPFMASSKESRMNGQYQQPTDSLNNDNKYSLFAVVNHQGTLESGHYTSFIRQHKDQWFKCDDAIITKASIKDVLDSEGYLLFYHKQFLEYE

For the next experiment, the target named is T3, ACAT1 C119 (P24752) (Homo sapiens, UniProt P24752).
T3 sequence (P24752 34-427): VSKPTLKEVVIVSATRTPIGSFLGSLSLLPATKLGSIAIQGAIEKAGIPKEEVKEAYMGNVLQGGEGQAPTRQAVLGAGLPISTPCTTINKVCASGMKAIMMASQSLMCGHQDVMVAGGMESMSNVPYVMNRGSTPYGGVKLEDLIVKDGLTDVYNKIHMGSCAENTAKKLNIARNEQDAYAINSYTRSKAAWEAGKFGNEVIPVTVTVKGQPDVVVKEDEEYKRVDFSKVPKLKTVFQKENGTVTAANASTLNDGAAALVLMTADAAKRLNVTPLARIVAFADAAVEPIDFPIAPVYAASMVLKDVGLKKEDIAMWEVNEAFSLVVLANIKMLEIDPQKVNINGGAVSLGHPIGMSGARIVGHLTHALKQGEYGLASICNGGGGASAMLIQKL

A further experiment concerns the target T4, ACAT1 C196 (P24752) (Homo sapiens, UniProt P24752).
T4 sequence (P24752 34-427): T3 sequence (P24752 34-427)
The settings on record: for isoTOP-ABPP ratio (reactivity profile), P24752_C196: 500 μm in-vitro ramos.

The next experiment addresses T5, ACAT1 C413 (P24752) (Homo sapiens, UniProt P24752).
T5 sequence (P24752 34-427): T3 sequence (P24752 34-427)

The next experiment deals with T6, ACAT1 C126 (P24752) (Homo sapiens, UniProt P24752).
T6 sequence (P24752 34-427): T3 sequence (P24752 34-427)

Chain of CASP8 C360 (Q14790) (Q14790 whole entry): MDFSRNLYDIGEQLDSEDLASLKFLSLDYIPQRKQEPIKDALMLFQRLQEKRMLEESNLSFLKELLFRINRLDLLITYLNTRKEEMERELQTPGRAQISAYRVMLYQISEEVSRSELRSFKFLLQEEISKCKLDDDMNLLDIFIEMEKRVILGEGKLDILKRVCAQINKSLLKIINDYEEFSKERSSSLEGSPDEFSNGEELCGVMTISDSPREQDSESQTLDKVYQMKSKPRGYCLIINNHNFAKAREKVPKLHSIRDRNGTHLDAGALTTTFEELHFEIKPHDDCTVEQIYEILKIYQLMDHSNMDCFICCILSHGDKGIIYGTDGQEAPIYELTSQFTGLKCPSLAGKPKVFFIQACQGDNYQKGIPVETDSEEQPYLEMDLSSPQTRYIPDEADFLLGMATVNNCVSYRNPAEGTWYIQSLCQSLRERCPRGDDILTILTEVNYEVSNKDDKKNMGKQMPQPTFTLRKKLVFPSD
Chain of SMARCC2 C145 (Q8TAQ2) (Q8TAQ2 whole entry): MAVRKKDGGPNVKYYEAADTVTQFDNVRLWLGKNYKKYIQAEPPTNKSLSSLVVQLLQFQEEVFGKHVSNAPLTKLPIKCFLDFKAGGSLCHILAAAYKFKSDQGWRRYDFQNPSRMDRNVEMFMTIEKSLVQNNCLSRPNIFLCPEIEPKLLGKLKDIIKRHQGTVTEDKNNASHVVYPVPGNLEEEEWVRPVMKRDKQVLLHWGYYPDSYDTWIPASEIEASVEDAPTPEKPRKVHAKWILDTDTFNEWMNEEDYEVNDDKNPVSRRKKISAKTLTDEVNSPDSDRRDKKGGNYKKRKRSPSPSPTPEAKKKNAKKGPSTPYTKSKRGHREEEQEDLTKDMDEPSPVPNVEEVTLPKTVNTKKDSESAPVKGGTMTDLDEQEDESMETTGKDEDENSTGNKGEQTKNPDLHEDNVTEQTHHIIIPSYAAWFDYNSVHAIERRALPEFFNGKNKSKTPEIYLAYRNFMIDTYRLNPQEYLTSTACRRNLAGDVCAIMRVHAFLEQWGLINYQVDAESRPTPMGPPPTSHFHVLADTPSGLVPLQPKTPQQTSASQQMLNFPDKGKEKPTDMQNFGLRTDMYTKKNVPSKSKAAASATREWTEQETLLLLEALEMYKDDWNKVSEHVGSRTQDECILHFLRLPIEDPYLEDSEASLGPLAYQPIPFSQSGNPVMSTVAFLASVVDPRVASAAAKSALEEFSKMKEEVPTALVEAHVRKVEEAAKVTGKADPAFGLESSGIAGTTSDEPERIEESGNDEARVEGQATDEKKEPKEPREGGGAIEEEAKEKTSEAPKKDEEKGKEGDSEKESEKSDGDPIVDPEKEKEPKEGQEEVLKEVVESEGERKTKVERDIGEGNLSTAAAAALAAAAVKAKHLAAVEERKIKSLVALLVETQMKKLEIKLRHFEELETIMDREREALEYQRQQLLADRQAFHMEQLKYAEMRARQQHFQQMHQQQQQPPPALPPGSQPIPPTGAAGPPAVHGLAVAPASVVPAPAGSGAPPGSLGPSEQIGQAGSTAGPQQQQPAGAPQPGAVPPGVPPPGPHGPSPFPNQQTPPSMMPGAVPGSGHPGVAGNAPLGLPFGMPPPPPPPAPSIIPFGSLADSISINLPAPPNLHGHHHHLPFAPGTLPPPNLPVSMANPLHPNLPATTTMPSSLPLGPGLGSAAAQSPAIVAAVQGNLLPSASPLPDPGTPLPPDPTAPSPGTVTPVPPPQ

`CCN(CC)c1ccc(S(N)(=O)=O)cc1NC(=O)CCl` [compound 30]: the “isoTOP-ABPP ratio (reactivity profile), Q14790_C360” value at CASP8 C360 (Q14790) (500 μm in-vitro ramos) was determined as 2.0. Besides, the “isoTOP-ABPP reactivity ratio, Q14790_C360” value on CASP8 C360 (Q14790) (500 μm, in-vitro_ramos) is listed as 5.2. Besides, the “isoTOP-ABPP reactivity ratio, Q15306_C194” value at IRF4 C194 (Q15306) (500 μm, in-vitro_ramos) turned out to be 1.7. The “isoTOP-ABPP ratio (reactivity profile), Q8TAQ2_C145” value on SMARCC2 C145 (Q8TAQ2) (500 μm in-vitro ramos) is listed as 1.1. Besides, the “isoTOP-ABPP reactivity ratio, Q8TAQ2_C145” value on SMARCC2 C145 (Q8TAQ2) (500 μm, in-vitro_ramos) came to 1.5. Moreover, the “isoTOP-ABPP reactivity ratio, Q9UPT9_C171” value on USP22 C171 (Q9UPT9) (500 μm, in-vitro_ramos) is 2.3. The “isoTOP-ABPP ratio (reactivity profile), P24752_C119” value on ACAT1 C119 (P24752) (500 μm in-vitro ramos) came to 0.7. For the same compound, the “isoTOP-ABPP reactivity ratio, P24752_C119” value at ACAT1 C119 (P24752) (500 μm, in-vitro_ramos) was found to be 0.9. Also, on ACAT1 C196 (P24752), the “isoTOP-ABPP ratio (reactivity profile), P24752_C196” value came out at 0.8. The “isoTOP-ABPP reactivity ratio, P24752_C196” value at ACAT1 C196 (P24752) (500 μm, in-vitro_ramos) was determined as 1.1. Also, at ACAT1 C413 (P24752) (500 μm in-vitro ramos), the “isoTOP-ABPP ratio (reactivity profile), P24752_C413” value came out at 1.1. The “isoTOP-ABPP reactivity ratio, P24752_C413” value at ACAT1 C413 (P24752) (500 μm, in-vitro_ramos) is 1.9. Moreover, the “isoTOP-ABPP ratio (reactivity profile), P24752_C126” value at ACAT1 C126 (P24752) (500 μm in-vitro ramos) is 1.1. Also, the “isoTOP-ABPP reactivity ratio, P24752_C126” value on ACAT1 C126 (P24752) (500 μm, in-vitro_ramos) turned out to be 1.6.
`N#C/C(=C\c1cc(C(F)(F)F)cc(C(F)(F)F)c1)C(N)=O` [compound 23]: the “isoTOP-ABPP ratio (reactivity profile), Q14790_C360” value on CASP8 C360 (Q14790) (500 μm in-vitro ramos) and at CASP8 C360 (Q14790) (500 μm in-vitro ramos_231) was 1.4 each time. The “isoTOP-ABPP ratio (reactivity profile), Q15306_C194” value at IRF4 C194 (Q15306) (500 μm in-vitro ramos) stood at 1.9. For the same compound, the “isoTOP-ABPP ratio (reactivity profile), Q8TAQ2_C145” value on SMARCC2 C145 (Q8TAQ2) (500 μm in-vitro ramos_231) is 1.3. Moreover, the “isoTOP-ABPP ratio (reactivity profile), Q9UPT9_C171” value on USP22 C171 (Q9UPT9) (500 μm in-vitro ramos_231) was determined as 5.1. Also, the results for the “isoTOP-ABPP ratio (reactivity profile), P24752_C119” value at ACAT1 C119 (P24752) (500 μm in-vitro ramos) and at ACAT1 C119 (P24752) (500 μm in-vitro ramos_231) were 2.0 and 1.7, respectively. In addition, the “isoTOP-ABPP ratio (reactivity profile), P24752_C196” value on ACAT1 C196 (P24752) was found to be 1.8. The “isoTOP-ABPP ratio (reactivity profile), P24752_C413” value at ACAT1 C413 (P24752) (500 μm in-vitro ramos) was determined as 1.2; at ACAT1 C413 (P24752) (500 μm in-vitro ramos_231), 1.1. The “isoTOP-ABPP ratio (reactivity profile), P24752_C126” value at ACAT1 C126 (P24752) (500 μm in-vitro ramos) and on ACAT1 C126 (P24752) (500 μm in-vitro ramos_231) was 0.8 throughout.
